Measurements taken from patent EP1750770B1, “USE OF ORGANO-SILICON COMPOUNDS FOR CO[…] TISSUES” (Exsymol, priority 2004, dated 2005).
Read-outs that look alike come from different tables or passages of the source.

Assays:
[1] = test system: collagénase; experiment: Collagenase activity in tissue extracts of the dermal polyvinyl alcohol microsponge implant zone (Test 1); type: in vivo, rats Hairless; conditions: once daily
Procedure: Une solution à 0,5 mg /ml de PZ-L Pro-L Leu-L Gly-L Pro-D Arg a été réalisée dans un tampon Tris-HCl (25 mM, pH 7,0; 2,5 mM de CaCl2). 0,5 ml de la solution de substrat ont été incubés à 37°C avec 200 µl d'extrait tissulaire pendant 2 h 30. A différents temps, 100 µl du milieu réactionnel ont été prélevés et ajoutés à 250 µl d'acide citrique à 0,5% (arrêt de la réaction) puis à 1,25 ml d'acétate d'éthyle. L'augmentation de densité optique (mD.O./min) et corrélée à la protéolyse du substrat a été suivie à 320 nm.
(§1) L'action quantitative et qualitative des deux composés organo-siliciés sur des rats Hairless et les altérations d'organisation de leur matrice extra-cellulaire (MEC) cutanée a été évaluée, et de manière régiosélective. En effet, un volume dermique de 0,5 cm^3 environ a été prélevé puis remplacé chirurgicalement par un dispositif médical implantable, que sont les microéponges en polyvinylalcool. Ces dernières sont usuellement utilisées pour la transplantation de cellules (Mooney D.J., J. Biomed. Mat Res(1995), vol.29, pp.959) car biocompatibles, de haute porosité et capables d'absorber 98% de leur volume.
(§2) La re-colonisation de l'implant (ou dispositif médical implantable) par le tissu dermique est alors observée sous l'effet des composés organo-siliciés. […] Les composés organo-siliciés sont administrés à raison d'une fois par jour pendant 2 mois.
(§3) L'évaluation quantitative a été réalisée via une mesure des cinétiques des marqueurs d'activité tissulaire dans la zone implantée. Les marqueurs suivis ont été des marqueurs biologiques témoignant de l'état du tissu, à savoir les enzymes "collagénase" et "élastase" qui rendent compte, avec leurs activités, du turn-over des protéines de la matrice extracellulaire, et l'enzyme "G6PDH" dont l'activité est un marqueur du niveau énergétique des cellules (équilibre redox cellulaire). L'évaluation qualitative a, elle, été réalisée avec le prélèvement chirurgical d'une partie de cet implant à différent temps de l'expérimentation. Après fixation, des coupes de 5 µm et une coloration H.E ou Trichrome-Masson ont été réalisées, ainsi qu'une analyse histologique de l'organisation du collagène de la MEC.

[2] = test system: élastase; experiment: Elastase activity in tissue extracts of the dermal implant zone (Test 1); type: in vivo, rats Hairless; conditions: once daily, SalSi-3OH intradermal, HyalSi-3OH topical cream
Procedure: Du N-succinyl-Ala-Ala-Pro-Leu p-nitroanilide en solution dans un tampon Tris-HCl (10mM pH 8) à 0,5 g/l à été incubé à 37°C avec 0,2 ml d'extrait tissulaire dans un volume final de 1,2 ml pendant 5 heures. L'augmentation de densité optique (mD.O./min) et corrélée à la protéolyse du substrat a été suivie à […].
as §1, §2, §3

[3] = test system: glucose-6-phosphate déshydrogénase; experiment: Glucose-6-phosphate dehydrogenase activity in tissue extracts of the dermal implant zone (Test 1); type: in vivo, rats Hairless; conditions: once daily
Procedure: 0,8 ml d'extrait tissulaire ont été incubés avec 20 µl de solution à 2,4 mM de NADP et à 24,4 mM de glucose 6-phosphate (G6P) en tampon phosphate (0,1M pH 7,4). L'augmentation de densité optique (mD.O./min) et corrélée à la réduction du substrat a été suivie à 340 nm à 25°C.
as §1, §2, §3

[4] = test system: matrice extra-cellulaire (MEC) cutanée; experiment: Qualitative evaluation: implant appearance and histological analysis of collagen organisation of the ECM (Test 1); type: in vivo, rats Hairless; conditions: once daily
From the text: as §1, §2, §3

[5] = test system: rides "patte d'oie" et/ou intersourcilières; conditions: for échelle visuelle analogique, Front / échelle visuelle analogique, Pattes-d'oie: intradermal injections at J0, S1, S2, rated by volunteers; for amélioration du relief cutané: all injected sites
From the text: Les données obtenues à partir de l'échelle visuelle analogique ont fait l'objet d'une analyse de variance en mesures répétées sur le temps, suivie d'une analyse des contrastes.

[6] = immediately after the injection
[7] = week 1 post-implantation, SalSi-3OH 0,5% solution 0,2 ml intradermal, HyalSi-3OH 0,5% cream 100 mg topical

hyaluronate de monométhylsilanetriol [HyalSi-3OH]
Activité collagénase [1, 7]: 3,4±0,3 mD.O./min/mg de prot.
Activité collagénase ([1]; week 2 post-implantation): 5,9±0,7 mD.O./min/mg de prot.
Activité collagénase ([1]; week 3 post-implantation): 12,0±1,3 mD.O./min/mg de prot.
Activité collagénase ([1]; week 4 post-implantation): 14,1±3,1 mD.O./min/mg de prot.
Activité collagénase ([1]; week 5 post-implantation): 7,3±1,6 mD.O./min/mg de prot.
Activité collagénase ([1]; week 8 post-implantation): 3,5±1,4 mD.O./min/mg de prot.
Activité élastase ([2]; week 1 post-implantation): 3,4±0,5 mD.O./min/mg de prot.
Activité élastase ([2]; week 2 post-implantation): 7,8±2,2 mD.O./min/mg de prot.
Activité élastase ([2]; week 3 post-implantation): 10,5±2,9 mD.O./min/mg de prot.
Activité élastase ([2]; week 4 post-implantation): 9,4±2,4 mD.O./min/mg de prot.
Activité élastase ([2]; week 5 post-implantation): 5,6±1,1 mD.O./min/mg de prot.
Activité élastase ([2]; week 8 post-implantation): 2,4±0,9 mD.O./min/mg de prot.
Activité G6DPH ([3]; week 1 post-implantation): 8,2±1,9 mD.O./min/mg de prot.
Activité G6DPH ([3]; week 2 post-implantation): 13,8±1,5 mD.O./min/mg de prot.
Activité G6DPH ([3]; week 3 post-implantation): 25,1±4,6 mD.O./min/mg de prot.
Activité G6DPH ([3]; week 4 post-implantation): 46,8±7,6 mD.O./min/mg de prot.
Activité G6DPH ([3]; week 5 post-implantation): 37,5±6,2 mD.O./min/mg de prot.
Activité G6DPH ([3]; week 8 post-implantation): 7,3±2,4 mD.O./min/mg de prot.
Aspect implant + analyse histologique ([4]; week 1 post-implantation): début colonisation cellulaire
Aspect implant + analyse histologique ([4]; week 2 post-implantation): colonisation cellulaire (70 à 90%) + début formation MEC
Aspect implant + analyse histologique ([4]; week 3 post-implantation): formation MEC avec accumulation collagène non organisé
Aspect implant + analyse histologique ([4]; week 4 post-implantation): formation MEC avec présence collagène non organisé dans 30% des espaces de l'implant + collagène organisé dans 10% de l'implant
Aspect implant + analyse histologique ([4]; week 5 post-implantation): formation MEC avec présence collagène non organisé dans l'ensemble de l'implant + collagéne organisé dans 30% de l'implant
Aspect implant + analyse histologique ([4]; week 8 post-implantation): formation MEC dans l'ensemble de l'implant + collagène organisé dans 45% de l'implant

salicylate de monométhylsilanetriol [SalSi-3OH]
Activité collagénase [1, 7]: 3,6±0,5 mD.O./min/mg de prot.
Activité collagénase ([1]; week 2 post-implantation): 6,1±0,8 mD.O./min/mg de prot.
Activité collagénase ([1]; week 3 post-implantation): 13±1,7 mD.O./min/mg de prot.
Activité collagénase ([1]; week 4 post-implantation): 11,2±0,8 mD.O./min/mg de prot.
Activité collagénase ([1]; week 5 post-implantation): 8,1±1,3 mD.O./min/mg de prot.
Activité collagénase ([1]; week 8 post-implantation): 3,9±0,5 mD.O./min/mg de prot.
Activité élastase ([2]; week 1 post-implantation): 3,0±0,6 mD.O./min/mg de prot.
Activité élastase ([2]; week 2 post-implantation): 6,8±1,3 mD.O./min/mg de prot.
Activité élastase ([2]; week 3 post-implantation): 9,5±1,3 mD.O./min/mg de prot.
Activité élastase ([2]; week 4 post-implantation): 8,4±1,6 mD.O./min/mg de prot.
Activité élastase ([2]; week 5 post-implantation): 5,1±0,9 mD.O./min/mg de prot.
Activité élastase ([2]; week 8 post-implantation): 2,0±0,3 mD.O./min/mg de prot.
Activité G6DPH ([3]; week 1 post-implantation): 7,6±1,4 mD.O./min/mg de prot.
Activité G6DPH ([3]; week 2 post-implantation): 9,3±1,1 mD.O./min/mg de prot.
Activité G6DPH ([3]; week 3 post-implantation): 18,4±2,9 mD.O./min/mg de prot.
Activité G6DPH ([3]; week 4 post-implantation): 43,7±5,5 mD.O./min/mg de prot.
Activité G6DPH ([3]; week 5 post-implantation): 36,5±4,8 mD.O./min/mg de prot.
Activité G6DPH ([3]; week 8 post-implantation): 9,0±0,45 mD.O./min/mg de prot.
Aspect implant + analyse histologique ([4]; week 1 post-implantation): début colonisation cellulaire
Aspect implant + analyse histologique ([4]; week 2 post-implantation): colonisation cellulaire (70à 90%) + début formation MEC
Aspect implant + analyse histologique ([4]; week 3 post-implantation): formation MEC avec présence collagène non organisé
Aspect implant + analyse histologique ([4]; week 4 post-implantation): formation MEC avec présence collagène non organisé dans 20% des espaces de l'implant + collagène organisé dans 20% du l'implant
Aspect implant + analyse histologique ([4]; week 5 post-implantation): formation MEC avec présence collagène non organisédans l'ensemble de l'implant + collagène organisé dans 50% de l'implant
Aspect implant + analyse histologique ([4]; week 8 post-implantation): formation MEC dans l'ensemble de l'implant + collagène organisé dans 70% de l'implant
échelle visuelle analogique, Front ([5]; S1): 18,67 ± 20,98 µm
échelle visuelle analogique, Pattes-d'oie ([5]; S1): 19,20 ± 19,14 µm
échelle visuelle analogique, Front ([5]; S2): 32,25 ± 23,23 µm
échelle visuelle analogique, Pattes-d'oie ([5]; S2): 31,23 ± 21,66 µm
échelle visuelle analogique, Front ([5]; S6): 35,33 ± 26,99 µm
échelle visuelle analogique, Pattes-d'oie ([5]; S6): 38,92 ± 25,97 µm
échelle visuelle analogique, Front ([5]; S12): 38,65 ± 25,85 µm
échelle visuelle analogique, Pattes-d'oie ([5]; S12): 41,63 ± 26,70 µm
échelle visuelle analogique, Front ([5]; S24): 39,55 ± 25,33 µm
échelle visuelle analogique, Pattes-d'oie ([5]; S24): 39,58 ± 24,89 µm
échelle visuelle analogique, Front ([5]; S36): 36,57 ± 24,55 µm
échelle visuelle analogique, Pattes-d'oie ([5]; S36): 39,52 ± 25,22 µm
échelle visuelle analogique, Front ([5]; S52): 34,58 ± 25,54 µm
échelle visuelle analogique, Pattes-d'oie ([5]; S52): 38,61 ± 26,10 µm
amélioration du relief cutané ([5]; at 6 months): se maintient
amélioration du relief cutané ([5]; at 12 months): régresse très légèrement
amélioration du relief cutané ([5]; mean, after 3 months): 40%
amélioration du relief cutané (significance) ([5]; one year after the first injection): significative sur tous les sites
effet de comblement [6]: sans effet de comblement immédiatement après l'injection
